From patent US10519141B2, “Pyrimidine compound and pharmaceutical use thereof” (HANMI PHARM. CO., LTD., priority 2017, dated 2019)

Assays:
[1] = target: T1, AXL kinase (Homo sapiens, UniProt P30530); test: Z'-LYTE kinase assay, inhibitory activity for AXL kinase; type: biochemical; settings: compound concentration of 100 nM, read-out: Degree of inhibition (%)
T1 construct: purchased Life Technologies
T1 sequence (P30530 26-894): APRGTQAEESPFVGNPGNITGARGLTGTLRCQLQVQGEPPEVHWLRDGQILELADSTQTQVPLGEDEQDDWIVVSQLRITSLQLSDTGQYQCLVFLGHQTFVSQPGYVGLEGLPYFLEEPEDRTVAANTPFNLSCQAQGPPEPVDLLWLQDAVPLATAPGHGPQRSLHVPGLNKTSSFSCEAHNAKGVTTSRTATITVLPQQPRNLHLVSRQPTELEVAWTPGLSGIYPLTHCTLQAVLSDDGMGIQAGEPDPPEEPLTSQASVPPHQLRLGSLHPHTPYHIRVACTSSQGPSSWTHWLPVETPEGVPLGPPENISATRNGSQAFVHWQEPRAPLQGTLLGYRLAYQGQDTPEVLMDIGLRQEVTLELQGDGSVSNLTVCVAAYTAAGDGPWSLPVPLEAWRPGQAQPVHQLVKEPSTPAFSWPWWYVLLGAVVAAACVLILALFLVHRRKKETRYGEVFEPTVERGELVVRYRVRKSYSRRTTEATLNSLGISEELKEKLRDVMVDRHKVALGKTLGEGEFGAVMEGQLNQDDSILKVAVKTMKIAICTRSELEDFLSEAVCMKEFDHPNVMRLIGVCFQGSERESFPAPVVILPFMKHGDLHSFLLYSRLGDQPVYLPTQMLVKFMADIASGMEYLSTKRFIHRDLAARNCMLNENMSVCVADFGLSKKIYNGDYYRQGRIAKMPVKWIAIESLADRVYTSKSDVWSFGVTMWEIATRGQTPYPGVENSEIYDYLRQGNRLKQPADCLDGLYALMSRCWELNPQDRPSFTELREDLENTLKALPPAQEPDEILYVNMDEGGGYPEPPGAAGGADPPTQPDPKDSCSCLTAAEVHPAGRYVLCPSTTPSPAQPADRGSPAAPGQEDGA
Protocol: (§1) Inhibitory activity of the exemplary compounds among the foregoing compounds with respect to AXL, CLK2, VEGFR2 (KDR), NUAK1 kinases were measured. Z'-LYTE™ Kinase Assay Kit-Tyr 6 Peptide (Cat. No. PV4122, available from Life Technologies) for AXL, Z'-LYTE™ Kinase Assay Kit-Ser/Thr peptide 6 (Cat. No. PV3179, available from Life Technologies) for CLK2, Z'-LYTE™ Kinase Assay Kit (Cat. No. PV3190, available from Life Technologies) for VEGFR, and Adapta™ Universal Kinase Assay Kit (Cat. No. PV5099, available from Life Technologies) for NUAK1(ARK5) were used. The experiments were carried out by Life Technologies corporation.

[2] = target: T2, NUAK1 (ARK5) kinase (Homo sapiens, UniProt O60285); test: Adapta Universal kinase assay, inhibitory activity for NUAK1 kinase; type: biochemical; settings: compound concentration of 100 nM, read-out: Degree of inhibition (%)
T2 construct: purchased Life Technologies
T2 sequence (O60285 1-661): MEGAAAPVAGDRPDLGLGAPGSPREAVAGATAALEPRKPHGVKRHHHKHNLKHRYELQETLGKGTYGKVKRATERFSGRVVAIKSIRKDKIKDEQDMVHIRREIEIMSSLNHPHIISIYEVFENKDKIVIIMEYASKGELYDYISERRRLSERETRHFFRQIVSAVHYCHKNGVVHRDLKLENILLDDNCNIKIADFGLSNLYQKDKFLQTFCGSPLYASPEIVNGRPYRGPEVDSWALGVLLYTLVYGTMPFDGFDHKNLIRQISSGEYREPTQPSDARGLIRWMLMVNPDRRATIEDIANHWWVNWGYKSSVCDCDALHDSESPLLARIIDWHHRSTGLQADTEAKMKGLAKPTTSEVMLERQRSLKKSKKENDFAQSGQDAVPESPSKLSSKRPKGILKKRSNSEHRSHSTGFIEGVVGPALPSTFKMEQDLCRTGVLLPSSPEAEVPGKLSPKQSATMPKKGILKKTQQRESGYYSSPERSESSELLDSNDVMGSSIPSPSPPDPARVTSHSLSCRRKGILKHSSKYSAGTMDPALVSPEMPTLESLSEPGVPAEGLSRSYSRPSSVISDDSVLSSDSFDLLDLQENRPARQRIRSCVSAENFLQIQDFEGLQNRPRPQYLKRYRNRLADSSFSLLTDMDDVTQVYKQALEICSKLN
Protocol: as §1

[3] = target: T3, VEGFR2 (KDR) kinase (Homo sapiens, UniProt P35968); test: Z'-LYTE kinase assay, inhibitory activity for VEGFR2 kinase; type: biochemical; settings: compound concentration of 100 nM, read-out: Degree of inhibition (%)
T3 construct: purchased Life Technologies
Protocol: as §1

[4] = target: T4, CLK2 kinase (Homo sapiens, UniProt P49760); test: Z'-LYTE kinase assay, inhibitory activity for CLK2 kinase; type: biochemical; settings: compound concentration of 100 nM, read-out: Degree of inhibition (%)
T4 construct: purchased Life Technologies
Protocol: as §1

[5] = system: RS4-11 cell line; test: Inhibitory activity in cell growth, MTS test, RS4-11; type: cell-based; settings: Homo sapiens, 72 h, incubation three days
Protocol: RS4-11 cell line was incubated in an RPMI1640 culture medium (10% fetal bovine serum (FBS)) at a temperature of 37° C. The incubated cell line was prepared in an amount of 2.0×10^4 cells/100 μL, and then plated on 96-well plates. The RPMI1640 medium was serially diluted with the test compounds at a concentration in a range of 10 μM to 0.1 nM at a ratio of 1/10. Subsequently, incubation was performed thereon for three days. An MTS test was performed to measure cell viability, and the 50% growth inhibition (GI50) value of the cell line was calculated using GraphPad Prism software.

[6] = system: MV4-11 cell line; test: Inhibitory activity in cell growth, MTS test, MV4-11; type: cell-based; settings: Homo sapiens, 72 h, incubation three days
Protocol: MV4-11 cell line was incubated in an IMDM medium (10% FBS) at a temperature of 37° C. The incubated cell line was prepared in an amount of 2×10^4 cells/100 μL, and then plated on 96-well plates. The IMDM medium was treated with cascade dilution of the test compounds at a concentration in a range of 1 μM to 0.01 nM at a rate of 1/10. Subsequently, incubation was performed thereon for three days. MTS test was performed to measure cell viability, and the 50% growth inhibition (GI50) value of the cell line was calculated using GraphPad Prism software.

T4 sequence (P49760 whole entry): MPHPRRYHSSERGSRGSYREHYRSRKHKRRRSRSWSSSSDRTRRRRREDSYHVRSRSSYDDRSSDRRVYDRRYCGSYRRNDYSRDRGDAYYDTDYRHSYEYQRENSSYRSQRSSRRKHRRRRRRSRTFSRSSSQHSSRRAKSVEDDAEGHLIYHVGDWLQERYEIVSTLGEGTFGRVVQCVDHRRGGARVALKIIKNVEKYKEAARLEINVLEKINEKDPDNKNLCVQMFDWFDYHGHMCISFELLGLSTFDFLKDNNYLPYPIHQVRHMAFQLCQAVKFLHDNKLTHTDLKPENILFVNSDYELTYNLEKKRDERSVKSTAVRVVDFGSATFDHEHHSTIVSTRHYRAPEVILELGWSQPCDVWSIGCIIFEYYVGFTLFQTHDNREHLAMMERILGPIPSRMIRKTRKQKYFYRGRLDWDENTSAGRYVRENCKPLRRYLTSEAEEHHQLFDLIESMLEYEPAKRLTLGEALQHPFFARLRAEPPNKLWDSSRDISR
T3 sequence (P35968 20-1356): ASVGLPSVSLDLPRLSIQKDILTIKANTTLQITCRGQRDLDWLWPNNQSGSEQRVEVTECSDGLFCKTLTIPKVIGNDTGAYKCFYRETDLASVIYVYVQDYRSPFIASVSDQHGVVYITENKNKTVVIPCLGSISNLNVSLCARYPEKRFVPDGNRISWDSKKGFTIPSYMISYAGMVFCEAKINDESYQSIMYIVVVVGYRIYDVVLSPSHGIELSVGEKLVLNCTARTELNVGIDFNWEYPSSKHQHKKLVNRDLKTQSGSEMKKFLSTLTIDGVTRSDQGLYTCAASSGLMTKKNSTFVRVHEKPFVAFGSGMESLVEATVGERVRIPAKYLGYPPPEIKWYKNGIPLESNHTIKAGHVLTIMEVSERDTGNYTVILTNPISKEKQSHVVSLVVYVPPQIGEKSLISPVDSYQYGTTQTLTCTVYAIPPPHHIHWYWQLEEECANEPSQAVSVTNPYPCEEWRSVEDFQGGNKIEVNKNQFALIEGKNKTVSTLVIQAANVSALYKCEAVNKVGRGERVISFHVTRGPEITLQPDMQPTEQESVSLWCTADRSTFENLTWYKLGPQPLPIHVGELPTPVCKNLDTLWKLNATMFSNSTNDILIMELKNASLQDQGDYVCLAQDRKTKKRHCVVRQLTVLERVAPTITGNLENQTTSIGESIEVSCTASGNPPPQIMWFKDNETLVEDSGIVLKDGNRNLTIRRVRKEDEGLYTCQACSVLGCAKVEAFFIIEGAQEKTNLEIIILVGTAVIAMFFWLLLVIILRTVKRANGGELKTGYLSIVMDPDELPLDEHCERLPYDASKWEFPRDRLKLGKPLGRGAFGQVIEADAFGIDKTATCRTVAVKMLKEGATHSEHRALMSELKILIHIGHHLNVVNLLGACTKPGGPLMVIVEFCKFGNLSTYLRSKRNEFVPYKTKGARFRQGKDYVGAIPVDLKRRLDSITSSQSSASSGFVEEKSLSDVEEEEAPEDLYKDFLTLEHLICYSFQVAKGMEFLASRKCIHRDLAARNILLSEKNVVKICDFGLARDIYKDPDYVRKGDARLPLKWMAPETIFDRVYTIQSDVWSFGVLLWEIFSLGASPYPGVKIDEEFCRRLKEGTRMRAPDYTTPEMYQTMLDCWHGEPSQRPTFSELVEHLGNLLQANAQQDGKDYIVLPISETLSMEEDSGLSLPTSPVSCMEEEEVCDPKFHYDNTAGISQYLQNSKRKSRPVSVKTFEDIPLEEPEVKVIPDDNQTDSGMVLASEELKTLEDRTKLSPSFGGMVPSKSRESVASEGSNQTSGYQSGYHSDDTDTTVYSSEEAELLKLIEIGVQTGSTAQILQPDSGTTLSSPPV

Cc1ccc2c(-c3nc(Nc4cc(C5CC5)cc(N5CCC(N(C)C)C5)c4)ncc3Cl)c[nH]c2c1 (centres unmarked) [Example 16, 5-chloro-N-(3-cyclopropyl-5-(3-(dimethylamino)pyrrolidine-1-yl)phenyl)-4-(6-methyl-1H-indole-3-yl)pyrimidine-2-amine]
inhibition at 0.1 µM [1]: 27% | inhibition at 0.1 µM [2]: 67% | inhibition at 0.1 µM [3]: 56% | inhibition at 0.1 µM [4]: 77%

Cc1ccc2c(-c3nc(Nc4cc(CN5CCN(C(C)(C)CO)CC5)cc(C5CC5)c4)ncc3Cl)c[nH]c2c1 [Example 41, 2-(4-(3-((5-chloro-4-(6-methyl-1H-indole-3-yl)pyrimidine-2-yl)amino)-5-cyclopropylbenzyl)piperazine-1-yl)-2-methylpropane-1-ol]
inhibition at 0.1 µM [1]: 50% | inhibition at 0.1 µM [3]: 63%

COc1ccc2c(-c3nc(Nc4cc(C5CC5)cc(N5CCN(CCO)CC5)c4)ncc3Cl)c[nH]c2c1 [Example 7, 2-(4-(3-((5-chloro-4-(6-methoxy-1H-indole-3-yl)pyrimidine-2-yl)amino)-5-cyclopropylphenyl)piperazine-1-yl)ethane-1-ol]
GI50 [5]: 33 nM

Cc1ccc2c(-c3nc(Nc4cc(C5CC5)cc(N5CCC(N(C)C)CC5)c4)ncc3Cl)c[nH]c2c1 [Example 6, 5-chloro-N-(3-cyclopropyl-5-(4-(dimethylamino)piperidine-1-yl)phenyl)-4-(6-methyl-1H-indole-3-yl)pyrimidine-2-amine]
inhibition at 0.1 µM [1]: 49% | inhibition at 0.1 µM [2]: 57% | inhibition at 0.1 µM [3]: 62% | inhibition at 0.1 µM [4]: 66%

CCc1cc(Nc2ncc(Cl)c(-c3c[nH]c4cc(C)ccc34)n2)cc(OCCN2CCC(O)CC2)c1 [Example 52]
GI50 [6]: 0.8 nM

Cc1ccc2c(-c3nc(Nc4cc(O[C@@H]5CCN(CCO)C5)cc(C5CC5)c4)ncc3Cl)c[nH]c2c1 [Example 53, (R)-2-(3-(3-((5-chloro-4-(6-methyl-1H-indole-3-yl)pyrimidine-2-yl)amino)-5-cyclopropylphenoxy)pyrrolidine-1-yl)ethane-1-ol]
GI50 [6]: 1.1 nM

COc1cc(Nc2ncc(Cl)c(-c3c[nH]c4ccccc34)n2)cc(C(=O)N2CCN(CCO)CC2)c1 [Example 50, (3-((5-chloro-4-(1H-indole-3-yl)pyrimidine-2-yl)amino)-5-methoxyphenyl)(4-(2-hydroxyethyl)piperazine-1-yl)methanone]
GI50 [6]: 1.2 nM

OCCN1CCN(c2cc(Nc3ncc(Cl)c(-c4c[nH]c5cc(F)ccc45)n3)cc(C3CC3)c2)CC1 [Example 1, 2-(4-(3-((5-chloro-4-(6-fluoro-1H-indole-3-yl)pyrimidine-2-yl)amino)-5-cyclopropylphenyl)piperazine-1-yl)ethane-1-ol]
inhibition at 0.1 µM [1]: 52% | inhibition at 0.1 µM [2]: 84% | inhibition at 0.1 µM [3]: 71% | GI50 [5]: 147 nM | inhibition at 0.1 µM [4]: 99%

CC(C)(CO)N1CCN(Cc2cc(Nc3ncc(Cl)c(-c4c[nH]c5ccccc45)n3)cc(C3CC3)c2)CC1 [Example 38, 2-(4-(3-((5-chloro-4-(1H-indole-3-yl)pyrimidine-2-yl)amino)-5-cyclopropylbenzyl)piperazine-1-yl)-2-methylpropane-1-ol]
inhibition at 0.1 µM [1]: 51% | inhibition at 0.1 µM [2]: 63% | inhibition at 0.1 µM [3]: 99% | inhibition at 0.1 µM [4]: 97%

CN(C)C1CCN(c2cccc(Nc3ncc(Cl)c(-c4c[nH]c5ccccc45)n3)c2)C1 (centres unmarked) [Example 30, 5-chloro-N-(3-(3-(dimethylamino)pyrrolidine-1-yl)phenyl)-4-(1H-indole-3-yl)pyrimidine-2-amine]
GI50 [6]: 0.8 nM

Cc1ccc2c(-c3nc(Nc4cc(C5CC5)cc(N5CCN(C(C)(C)CO)CC5)c4)ncc3Cl)c[nH]c2c1 [Example 17, 2-(4-(3-((5-chloro-4-(6-methyl-1H-indole-3-yl)pyrimidine-2-yl)amino)-5-cyclopropylphenyl)piperazine-1-yl)-2-methylpropane-1-ol]
inhibition at 0.1 µM [1]: 66% | inhibition at 0.1 µM [2]: 72% | inhibition at 0.1 µM [3]: 67% | inhibition at 0.1 µM [4]: 93%

Cc1ccc2c(-c3nc(Nc4cc(C5CC5)cc(N5CCN(CCO)CC5)c4)ncc3Cl)c[nH]c2c1 [Example 2, 2-(4-(3-((5-chloro-4-(6-methyl-1H-indole-3-yl)pyrimidine-2-yl)amino)-5-cyclopropylphenyl)piperazine-1-yl)ethane-1-ol]
inhibition at 0.1 µM [1]: 56% | inhibition at 0.1 µM [2]: 71% | inhibition at 0.1 µM [3]: 46% | inhibition at 0.1 µM [4]: 91%
